PMC7078479, “Sulfamoyl Heteroarylcarboxylic Acids as Promising Metallo-β-Lactamase Inhibitors for Controlling Bacterial Carbapenem Resistance” (mBio, 2020)
Where two headings read alike, the source gives them in different places.

Experiments:
[1] = target: T1, IMP-1 (Serratia marcescens, UniProt P52699); experiment: Library screening, nitrocefin hydrolysis by IMP-1; format: biochemical; conditions: 100 μM compound, 10 nM IMP-1, 100 μM nitrocefin, 1 h
T1 construct: made in house
Source text: Screening compounds were provided from the curated collection of an in-house small-molecule chemical library (the chemical library of the Institute of Transformative Bio-Molecules [ITbM]). The library is composed of structurally diverse molecules, including synthetic molecules with unknown activity, known enzyme inhibitors, approved drugs, and natural products. Some of these molecules are commercially available from several worldwide chemical suppliers, whereas some are structurally novel molecules synthesized in-house by ITbM. All compounds were dissolved in dimethyl sulfoxide (DMSO) at a concentration of 10 mM and stored at −20°C until further use. We screened 22,671 compounds in 96-well flat plates using nitrocefin as a reporter substrate ([37]). Each well included 20 mM HEPES-NaOH buffer (pH 7.5) containing 10 nM IMP-1, 100 μM nitrocefin, and 100 μM concentrations of the tested compounds. The absorbance (Abs) at 482 nm was measured after incubation for 1 h at room temperature. The inhibitory effect of compounds against IMP-1 was evaluated using the following equation: Residual ratio=Abs482 nm compound/Abs482 nm no compound

[2] = test system: E. coli DH5α/pBC-TMB-2; experiment: Susceptibility testing, TMB-2-producing E. coli; format: cell-based; conditions: Escherichia coli
Experimental: (§1) MICs were determined via the microdilution method according to the CLSI guidelines ([38]). In brief, 5 × 10^4 bacterial cells were inoculated in 100 μl of cation-adjusted Mueller-Hinton broth (Becton, Dickinson and Company, Franklin Lakes, NJ) containing the β-lactams and appropriately diluted inhibitors. The final concentration of DMSO was maintained at 2% in the assays. The tested plates were then incubated at 35°C for 16 to 20 h. The MIC value was determined as the lowest concentration of tested β-lactams where no bacterial growth was visibly observed. The optical density at 600 nm (OD600) value was measured using a plate reader for drawing the heat maps. The FIC index value was calculated using the following equation: FIC index=MIC of β-lactam with inhibitor/MIC of β-lactam alone+MIC of inhibitor with β-lactam/MIC of inhibitor alone

[3] = test system: P. aeruginosa PAO1/pME-NDM-1; experiment: Susceptibility testing, NDM-1-producing P. aeruginosa PAO1; format: cell-based; conditions: Pseudomonas aeruginosa
Experimental: as §1

[4] = test system: P. aeruginosa PAO1/pME6032; experiment: Susceptibility testing, P. aeruginosa PAO1 with empty vector; format: cell-based; conditions: Pseudomonas aeruginosa, PAO1, read-out: MIC of MPM without inhibitor
Experimental: as §1

[5] = test system: P. aeruginosa PAO1/pME-VIM-2; experiment: Susceptibility testing, VIM-2-producing P. aeruginosa PAO1; format: cell-based; conditions: Pseudomonas aeruginosa
Experimental: as §1

[6] = test system: E. coli DH5α/pBC-IMP-1; experiment: Susceptibility and checkerboard testing, IMP-1-producing E. coli; format: cell-based, Escherichia coli; conditions: for MIC: Escherichia coli
Experimental: as §1
(§2) Unless noted otherwise, the FIC index was defined as the lowest value among all obtained values. The synergistic effect was defined as the effect observed when the FIC index value was ≤0.5.

[7] = test system: E. coli DH5α/pBC-NDM-1; experiment: Susceptibility and checkerboard testing, NDM-1-producing E. coli; format: cell-based, Escherichia coli; conditions: for MIC: Escherichia coli
Experimental: as §1, §2

[8] = test system: IMP-1-producing E. coli NUBL-24; experiment: Mouse infection model, E. coli NUBL-24, survival; format: in vivo, mice
Experimental: (§3) All experiments were approved by the Nagoya University Animal Ethics Committee, and all experiments were performed in a manner that minimized animal suffering. Male CD1 mice (4 weeks old; 20 to 25 g body weight) were purchased from Charles River Laboratories Japan (Yokohama, Japan). E. coli NUBL-24 (blaIMP-1) and K. pneumoniae MS5674 (blaNDM-1 and blaVIM-1) strains were inoculated on LB agar plates and grown for 18 h at 37°C. Bacteria were then scraped from the plates, and their concentration was adjusted to 5 × 10^6 to 1 × 10^7 CFU in saline solution containing 5% mucin; this solution was then i.p. injected into the mice. At 1 and 3 h after infection, saline solution, MPM, inhibitors, and a combination of MPM and inhibitor were i.p. injected. Mice were monitored for 7 days to formulate survival curves, after which they were euthanized by CO2 asphyxiation.

[9] = test system: IMP-type MBL-producing Enterobacteriaceae; experiment: Susceptibility testing, 19 IMP-type MBL-producing Enterobacteriaceae isolates; format: cell-based
Experimental: as §1

[10] = test system: P. aeruginosa PAO1/pME-IMP-1; experiment: Susceptibility testing, IMP-1-producing P. aeruginosa PAO1; format: cell-based; conditions: Pseudomonas aeruginosa
Experimental: as §1

[11] = test system: IMP-1-producing E. coli NUBL-24; experiment: Susceptibility and checkerboard testing, E. coli NUBL-24; format: cell-based; conditions: Escherichia coli; E. coli NUBL-24 (blaIMP-1), MPM alone
Experimental: as §1, §2
The initial density of E. coli NUBL-24 (blaIMP-1) (MPM MIC, 8 μg/ml) was adjusted to approximately 5 × 10^6 CFU/ml. Either MPM (1 μg/ml) alone or SFC (10 μg/ml) alone or a combination of the two was added to the bacterial solution, and then incubation was performed at 37°C. LB broth containing only bacteria was used as a control. […]

[12] = test system: E. coli BL21(DE3)/pET-SIM-1; experiment: Susceptibility testing, SIM-1-producing E. coli; format: cell-based; conditions: Escherichia coli
Experimental: as §1

[13] = test system: IMP-1-producing Acinetobacter spp.; experiment: Susceptibility testing, 8 IMP-1-producing Acinetobacter spp. isolates; format: cell-based; conditions: addition of SPC, concentration not given (Fig. S5)
Experimental: as §1

[14] = test system: E. coli DH5α/pBC-VIM-2; experiment: Susceptibility and checkerboard testing, VIM-2-producing E. coli; format: cell-based, Escherichia coli; conditions: for MIC: Escherichia coli
Experimental: as §1, §2

[15] = test system: E. coli BL21(DE3)/pET-KHM-1; experiment: Susceptibility testing, KHM-1-producing E. coli; format: cell-based; conditions: Escherichia coli
Experimental: as §1

[16] = test system: HeLa cells; experiment: Toxicity assay in HeLa cells (CellTiter 96 AQueous); format: cell-based; conditions: 24 h exposure, cell proliferation assay
Experimental: HeLa cells were seeded at 5,000 cells per well in 96-well plates and cultured in Dulbecco’s modified Eagle’s medium (DMEM) (Wako Pure Chemical Industries, Osaka, Japan). After incubation for 24 h at 37°C with 5% CO2, staurosporine (Sigma-Aldrich, St. Louis, MO) and SHCs were added to each well (final DMSO concentration was 1%), after which the plates were incubated for another 24 h. Twenty microliters of tetrazolium solution, obtained from a CellTiter 96 AQueous one-solution cell proliferation assay kit (Promega, Madison, WI), was added into each well. The plate was incubated for 3 h under the same conditions mentioned above, and the absorbance at 490 nm was measured for the determination of cell proliferation.

[17] = test system: E. coli BL21(DE3)/pET-SPM-1; experiment: Susceptibility testing, SPM-1-producing E. coli; format: cell-based; conditions: Escherichia coli
Experimental: as §1

[18] = Human liver microsomal stability test; format: in vitro ADME; conditions: 100 nM compound, 0.1 mg protein/ml, 35 min, 37°C
Experimental: Human liver microsomal stability tests were performed by Sumika Chemical Analysis Service (Osaka, Japan). Compounds (100 nM) were incubated with human liver microsomes (0.1 mg protein/ml) for 35 min at 37°C and subjected to liquid chromatography-tandem mass spectrometry (LC-MS/MS) for quantification of the loss of the tested compounds.

[19] = target: T2, VIM-2 (Escherichia coli, UniProt Q5U7L7); experiment: Inhibition of IPM hydrolysis by purified VIM-2, Ki by Lineweaver-Burk plots; format: biochemical; conditions: IPM as substrate, competitive model, mean of three replicates; read-out: Inhibition constant Ki VIM-2
T2 construct: made in house
Experimental: (§4) MBL (10 nM) was mixed with the inhibitors and incubated for 5 min at 30°C. IPM was added to reach a concentration of 150 μM, and the velocity of IPM hydrolysis was monitored at 298 nm. The assay was performed at 30°C using 10 mM HEPES (pH 7.5) buffer containing 200 mM NaCl and 50 μg/ml bovine serum albumin (BSA) for IMP-1, NDM-1, VIM-2, and SMB-1. For SFH-1 and L1, another 10 mM HEPES (pH 7.5) buffer containing 200 mM NaCl, 20 μM ZnSO4, and 50 μg/ml BSA was used.
(§5) Initial velocities (vo) were measured after varying the concentrations of IPM and inhibitors, and inverse velocities (1/vo) were plotted against inverse IPM concentrations […]. Lineweaver-Burk plots were constructed to obtain the inhibition constant (Ki) with the competitive inhibition model using the SigmaPlot 13 suite (Hulinks).

[20] = target: T1, IMP-1; experiment: Inhibition of IPM hydrolysis by purified IMP-1, Ki by Lineweaver-Burk plots; format: biochemical
Experimental: as §4, §5

[21] = test system: NDM-type MBL-producing Enterobacteriaceae; experiment: Susceptibility testing, 14 NDM-type MBL-producing Enterobacteriaceae isolates; format: cell-based; conditions: NDM producers
Experimental: as §1

[22] = test system: E. coli BL21(DE3)/pET-DIM-1; experiment: Susceptibility testing, DIM-1-producing E. coli; format: cell-based; conditions: Escherichia coli
Experimental: as §1

[23] = target: T3, NDM-1 (Klebsiella pneumoniae, UniProt C7C422); experiment: Inhibition of IPM hydrolysis by purified NDM-1, Ki by Lineweaver-Burk plots; format: biochemical; conditions: IPM as substrate, competitive model, mean of three replicates; read-out: Inhibition constant Ki NDM-1
T3 construct: made in house
Experimental: as §4, §5

[24] = test system: dually NDM-1/VIM-1-producing Klebsiella pneumoniae MS5674; experiment: Mouse infection model, K. pneumoniae MS5674, survival; format: in vivo, mice; conditions: MPM 4 mg/kg and SPC 10 mg/kg versus MPM alone, K. pneumoniae MS5674 1 × 10^7 CFU
Experimental: as §3

[25] = read-out: MIC of MPM without inhibitor
[26] = PAO1, read-out: MIC of MPM without inhibitor
[27] = read-out: MIC of MPM + inhibitor (8 μg/ml)
[28] = read-out: MIC of MPM + inhibitor (32 μg/ml)
[29] = PAO1, read-out: MIC of MPM + inhibitor (10 μg/ml)
[30] = PAO1, read-out: MIC of MPM + inhibitor (50 μg/ml)

T1 sequence (P52699 19-246 limits assumed): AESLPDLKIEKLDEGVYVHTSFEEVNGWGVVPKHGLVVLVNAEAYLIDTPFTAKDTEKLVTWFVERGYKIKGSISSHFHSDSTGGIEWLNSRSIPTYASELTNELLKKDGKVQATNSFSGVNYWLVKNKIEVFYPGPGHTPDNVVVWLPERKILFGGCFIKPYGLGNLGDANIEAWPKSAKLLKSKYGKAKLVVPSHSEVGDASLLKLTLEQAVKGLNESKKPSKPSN
T3 sequence (C7C422 29-270 limits assumed): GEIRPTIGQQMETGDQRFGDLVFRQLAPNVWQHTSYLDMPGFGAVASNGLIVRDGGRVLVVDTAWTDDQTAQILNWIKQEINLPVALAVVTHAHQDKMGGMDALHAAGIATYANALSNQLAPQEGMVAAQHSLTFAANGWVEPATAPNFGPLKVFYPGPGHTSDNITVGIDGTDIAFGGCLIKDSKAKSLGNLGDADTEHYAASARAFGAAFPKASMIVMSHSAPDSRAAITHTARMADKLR

## O=C([O-])C1=CS[C@@H]2/C(=C\c3cn4c(n3)COCC4)C(=O)N12.[Na+] [BLI-489]
[1]
  Residual ratio (Abs482 compound/no compound): < 0.6

## C[C@@H](O)[C@H]1C(=O)N2C(C(=O)O)=C(S[C@@H]3CN[C@H](C(=O)N(C)C)C3)[C@H](C)[C@H]12 [MPM, meropenem, reference compound]
[2]; [25]
  MIC: 16 µg/mL
[3]; [26]
  MIC: 8 µg/mL
[4]
  MIC: 0.5 µg/mL
[5]; [26]
  MIC: 32 µg/mL
[6]; E. coli DH5α/pBC-IMP-1
  MIC of MPM without inhibitor: 1 µg/mL
[6]; [25]
  MIC: 1 µg/mL
[7]; [25]
  MIC: 64 µg/mL
[8]; SFC 100 mg/kg or MPM 0.2 mg/kg i.p. at 1 and 3 h after infection, within 48 h
  Rescue of infected mice by monotherapy: failed to rescue mice
[9]; read-out: MIC of MPM alone
  MIC: ≥ 2 µg/mL
[10]; [26]
  MIC: 128 µg/mL
[11]
  MIC: 8 µg/mL
[12]; [25]
  MIC: 16 µg/mL

## CCc1c(C(=O)O)c(S(N)(=O)=O)c(CC)n1C [SPC, 2,5-diethyl-1-methyl-4-sulfamoylpyrrole-3-carboxylic acid]
[2]; [27]
  MIC: 0.063 µg/mL
[2]; [28]
  MIC: 0.031 µg/mL
[3]; [29]
  MIC: 4 µg/mL
[3]; [30]
  MIC: 4 µg/mL
[13]
  Isolates whose MPM MIC decreased to susceptibility criteria (MIC ≤2 μg/ml): 6/8
[14]; E. coli DH5α/pBC-VIM-2, 2 μg/ml compound
  Reduction in CAZ MIC: 16 fold
[14]; read-out: MIC of CAZ + inhibitor (8 μg/ml)
  MIC: 1 µg/mL
[14]; read-out: MIC of CAZ + inhibitor (32 μg/ml)
  MIC: 1 µg/mL
[15]; [27]
  MIC: 0.125 µg/mL
[15]; [28]
  MIC: 0.063 µg/mL
[5]; [29]
  MIC: 8 µg/mL
[5]; [30]
  MIC: 4 µg/mL
[16]
  Toxicity in HeLa cells: low toxicity
[17]; [27]
  MIC: 0.063 µg/mL
[17]; [28]
  MIC: 0.063 µg/mL
[18]
  Stability in human liver microsomes: high stability
[6]; E. coli DH5α/pBC-IMP-1, 2 μg/ml compound
  Reduction in MPM MIC: 32 fold
[6]; [27]
  MIC: 0.031 µg/mL
[6]; [28]
  MIC: 0.031 µg/mL
[7]; E. coli DH5α/pBC-NDM-1, 2 μg/ml compound
  Reduction in MPM MIC: 256 fold
[7]; [27]
  MIC: ≤ 0.25 µg/mL
[7]; [28]
  MIC: ≤ 0.25 µg/mL
[19]
  Ki: 20 nM
[8]; MPM 0.8 mg/kg and SPC 10 mg/kg versus MPM alone, E. coli NUBL-24 1 × 10^7 CFU
  Mortality of infected mice under MPM-SPC combination therapy: significantly reduced the mortality
[20]
  Ki: 260 nM
[21]; addition of inhibitor, concentration not given (Fig. S5)
  Isolates whose MPM MIC decreased to susceptibility criteria (MIC ≤1 μg/ml): 7/14
[21]; reduction in MPM MIC, 4 μg/ml SPC and SFC
  Isolates with equal or increased reactivity toward SPC instead of SFC: 14/14
[22]; [27]
  MIC: 2 µg/mL
[22]; [28]
  MIC: 0.063 µg/mL
[9]; addition of inhibitor, concentration not given (Fig. S5), IMP-producing Enterobacteriaceae
  Isolates whose MPM MIC decreased to susceptibility criteria (MIC ≤1 μg/ml): 17/19
[9]; reduction in MPM MIC, 4 μg/ml SPC and SFC, IMP producers
  Isolates with equal or increased reactivity toward SPC instead of SFC: 18/19
[10]; [29]
  MIC: 64 µg/mL
[10]; [30]
  MIC: 16 µg/mL
[23]
  Ki: 840 nM
[24]
  Mortality of infected mice under MPM-SPC combination therapy: significantly reduced the mortality
[12]; [27]
  MIC: 1 µg/mL
[12]; [28]
  MIC: 0.125 µg/mL
